Literature values as cited in US7291720B2, “Use of sublethal concentrations of anti-invasin compounds to therapeutically or prophylactically treat fungal infections” (priority 2000, dated 2007).

What was measured:
[1] = about half necessitated discontinuation of therapy
[2] = tested on: susceptible isolate of C. albicans; conditions: in vitro

For `OC(Cn1cncn1)(Cn1cncn1)c1ccc(F)cc1F` [fluconazole], the “patients with adverse reactions, possibly related to the treatment” value [1] is listed as “over 5%” and the “concentration that reduces hyphal formation” value [2] is listed as 0.1 µg/mL.
